From BindingDB's records for doi:10.1016/j.ejmech.2013.01.009 (Fudan University, 2013)

Target: Signal transducer and activator of transcription 3 (Homo sapiens, UniProt P40763)
Assay: Inhibition of STAT3 in IL-6-stimulated human HepG2 cells treated for 1 hr prior to IL-6 challenge measured after 5.5 hrs by luciferase reporter gene assay

Signal transducer and activator of transcription 3, sequence (P40763 whole entry): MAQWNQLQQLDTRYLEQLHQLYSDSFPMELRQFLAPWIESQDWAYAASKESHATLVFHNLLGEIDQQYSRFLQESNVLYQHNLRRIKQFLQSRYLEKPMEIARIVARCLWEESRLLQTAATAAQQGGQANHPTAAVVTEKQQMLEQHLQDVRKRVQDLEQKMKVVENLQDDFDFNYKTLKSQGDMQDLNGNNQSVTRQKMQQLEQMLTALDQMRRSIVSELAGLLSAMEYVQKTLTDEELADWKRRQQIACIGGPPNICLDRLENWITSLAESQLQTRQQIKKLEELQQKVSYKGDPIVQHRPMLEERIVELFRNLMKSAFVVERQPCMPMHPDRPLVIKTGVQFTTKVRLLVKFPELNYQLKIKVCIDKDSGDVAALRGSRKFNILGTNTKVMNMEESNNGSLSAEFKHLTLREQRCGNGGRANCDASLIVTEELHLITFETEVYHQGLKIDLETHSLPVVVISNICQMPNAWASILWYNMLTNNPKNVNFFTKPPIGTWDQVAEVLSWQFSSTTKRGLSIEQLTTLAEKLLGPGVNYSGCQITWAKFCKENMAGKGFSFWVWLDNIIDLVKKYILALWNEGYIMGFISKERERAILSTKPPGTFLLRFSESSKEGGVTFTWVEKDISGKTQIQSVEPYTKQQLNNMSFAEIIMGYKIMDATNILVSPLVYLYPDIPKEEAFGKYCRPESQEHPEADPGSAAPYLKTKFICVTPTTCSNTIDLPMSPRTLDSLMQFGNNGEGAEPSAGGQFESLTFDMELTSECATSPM

- IC50: 3.57 µM
SMILES: CCC(Sc1nc2ccc(NC(=O)c3ccc(OC)cc3)cc2s1)C(=O)Nc1ccc(Br)cc1 (stereo unspecified)
